Earlier results, collected in patent US6352974B1, “Oral calcitonin pharmaceutical compositions and methods of making the same” (Eurand International S.p.A., priority 1996, dated 2002).

Conditions: typical activity

For Salmon calcitonin, the activity is given as “up to 6500 IU/mg”.
